What is called log P is the decadic logarithm of the partition coefficient of the neutral form, usually between octanol and water. Usually logP stands for a log measure of how a compound divides between an organic and an aqueous phase.

Results on seven compounds are retold here after article PMC7727669, “Platinum(II) Complexes with Bulky Disubstitute Triazolopyrimidines as Promising Materials for Anticancer Agents” (Materials, 2020).

The conditions of data set [1]: cited from earlier work.
For data set [2], the system named is non-small cell lung carcinoma (A549). Briefly: In vitro antiproliferative activity, SRB test, A549. The class given is cell-based, human. To be noted: A549, 72 h incubation, average of three determinations. As to the method:
(§1) The in vitro antiproliferative activity against three human tumor cell lines, namely, non-small cell lung carcinoma (A549) (ATCC, Rockville, MD, USA), […] human ductal breast epithelial tumor cells (T47D) (ATCC, Rockville, MD, USA) and colon cancer cells (LOVO) (ATCC, Rockville, MD, USA), and normal murine embryonic fibroblast cells (BALB/3T3) (ATCC, Rockville, MD, USA), was assessed.
(§2) Cells were plated in 96-well sterile plates (Sarstedt, Costar) at a density of 10^4 cells per well (in 100 μL of culture medium) and incubated for 24 h. The tested compound was added in final concentrations ranging from 0.1 to 100 μg mL^−1, and the incubation was continued for an additional 72 h. The results of in vitro cytotoxic activity are expressed as an IC50 (the dose of compound (in μM) that inhibits proliferation rate of tumor cells by 50%) value compared to the untreated control cells. IC50 values are expressed as the averages of three independently reproduced experiments. The details of this technique were described by Skehan. The tests of the antiproliferative activity in vitro against both cell lines were performed with the SRB (sulforhodamine B) test using an automated microplate reader (Synergy H4 photometer, BioTek Instruments Inc., Winooski, VT, USA). Moreover, in vitro toxicity against normal murine fibroblast Balb3T3 cells was assessed.

Data set [3] has as its system colon cancer cells (LOVO). Briefly: In vitro antiproliferative activity, SRB test, LoVo. It counts as cell-based, human. To be noted: 72 h incubation, average of three determinations. As to the method: as §1, §2
(In general: Sulforhodamine B stains cellular protein and so reports cell mass.)

Data set [4] deals with cisplatin-resistant human ductal breast epithelial tumor cells (T47D). Kind of data set: In vitro antiproliferative activity, SRB test, T47D. The class given is cell-based. The settings on record: 72 h incubation, average of three determinations. As to the method:
as §1, §2

In data set [5] the test system is normal murine embryonic fibroblast cells (BALB/3T3). Kind of data set: In vitro toxicity against normal fibroblasts, SRB test, BALB/3T3. It counts as cell-based. To be noted: BALB/3T3 normal cells, 72 h incubation, average of three determinations. As to the method:
as §2, with “The results of in vitro cytotoxic activity are expressed as an IC50 (the dose of compound (in μM) that inhibits proliferation rate of tumor cells by 50%) value compared to the untreated control cells.” left out

Data set [6] can be described thus: Partition coefficient (logP), shake-flask method. It counts as physicochemical. The settings on record: n-octanol / aqueous 0.9% NaCl, UV-Vis. The protocol:
The lipophilicity (logP) of the platinum(II) compounds was determined using the shake–flask method. At first, aqueous (0.9% w/v) sodium chloride and organic (n–octanol) phases were saturated for 1 week. […] An equal volume of immiscible solvent was added, and the solutions were mixed mechanically in plastic tubes for 30 min. Samples were centrifuged (6000 rpm, 15 min). After separation, the phases were analyzed by UV–Vis spectroscopy to determine the amount of the compound in each phase. The absorption values before and after shaking were compared, and based on the Lambert–Beer law, the partition coefficient in both phases for each compound was calculated to determine the logP values. The procedures were repeated threefold.

In data set [7] the test system is human ovarian carcinoma cell lines resistant to cisplatin (A2780R). More on the design: method as in PMID 19783310. The settings on record: read-out: in vitro activity against A2780R; cited from earlier work.

Where two headings read alike, the source gives them in different places.

For the compound `N.N.O=C([O-])C1(C(=O)[O-])CCC1.[Pt+2]` [carboplatin], the “log P” value in data set [1] (literature data for platinum(II) drugs) is on record as −2.30.
Consider `CC(C)(C)c1cc(C(C)(C)C)n2ncnc2n1.CC(C)(C)c1cc(C(C)(C)C)n2ncnc2n1.O=C([O-])CC(=O)[O-].[Pt+2]` [[Pt(mal)(dbtp)2]], for which the logP in data set [1] (symmetrical malonato complexes, previous work) was 2.07.
Take “(Dimethylsulfoxide-κS)(7-isobutyl-5-methyl-1,2,4-triazolo[1,5-a]pyrimidine-κN(3))(malonato- κ^2O,O′)platinum(II) monoaqua hydrate [Complex 2]”: the IC50 was determined as 57.8 ± 13.5 µM in data set [2], 38.4 ± 1.8 µM in data set [3], 42.6 ± 19 µM in data set [4] and 46 ± 40.7 µM in data set [5]. The “log P” value in data set [6] is −0.65.
On to “(Dimethylsulfoxide-κS)(7-isobutyl-5-methyl-1,2,4-triazolo[1,5-a]pyrimidine-κN(3))(cyclo- butane-1,1-dicarboxylato-κ^2O,O′))platinum(II) monoaqua hydrate [Complex 4]”, for which the IC50 was 57.3 ± 11.3 µM in data set [2], 41.2 ± 1.6 µM in data set [3], 21.9 ± 17.2 µM in data set [4] and 73.4 ± 29.7 µM in data set [5]. Further, the “log P” value in data set [6] is −1.23.
Regarding “(Dimethylsulfoxide-κS)(5,7-ditertbutyl-1,2,4-triazolo[1,5-a]pyrimidine-κN(3))(cyclobutane-1,1- dicarboxylato-κ^2O,O′))platinum(II) monoaqua hydrate [Complex 3]”, the IC50 is 5 ± 0.9 µM in data set [2], 20 ± 2.8 µM in data set [3], 6.6 ± 4.8 µM in data set [4] and 10.2 ± 6.2 µM in data set [5]. For the same compound, the lipophilicity (log P) in data set [6] is given as −1.69.
Consider `N.N.[Cl][Pt][Cl]` [cisplatin, reference compound], for which the IC50 in data set [2] is 9 ± 1.1 µM; in data set [3], 0.84 ± 0.3 µM; in data set [4], 3.11 ± 1.2 µM; in data set [5] it was 3.2 ± 1.5 µM; in data set [7] it was 20.4 µM.
Take “(Dimethylsulfoxide-κS)(5,7-ditertbutyl-1,2,4-triazolo[1,5-a]pyrimidine-κN(3))(malonato-κ^2O,O′) platinum(II) [Complex 1]”: the IC50 in data set [2] is 16.3 ± 9.9 µM; in data set [3], 27.9 ± 1 µM; in data set [4] it was 17.1 ± 10.5 µM; in data set [5], 30.2 ± 22.6 µM. In addition, the “log P” value in data set [6] is reported as −1.58.
